Earlier results, collected in article PMC8158804 (ACS Omega, 2021).

Settings: critical aggregation concentration, fluorimetry, pure water

| Substance | CAC (−log M) |
| --- | --- |
| AcGAAVILRRNH2 | 1.52 −log M |
| AcGVPGVGKKNH2 [KK8] | 2.10 −log M |
| AcIIIGVPGVGKKNH2 [IKK11] | 2.66 −log M |
| AcIIIGVPGVGVPGVGKKNH2 [IKK16] | 3.13 −log M |
| AcIIIKGVPGVGKNH2 [IK-K11] | 2.58 −log M |
| AcIIIKGVPGVGVPGVGKNH2 [IK-K16] | 3.03 −log M |
| AcKGVPGVGKNH2 [K-K8] | 2.10 −log M |
| RFRF [[RF]2] | 4.40 −log M |
| RFRFRF [[RF]3] | 2.64 −log M |
| RFRFRFRF [[RF]4] | 3.52 −log M |
| RFRFRFRFRF [[RF]5] | 4.70 −log M |
| V6K2GRGDS | 4.83 −log M |

Settings: critical aggregation concentration, conductivity, pure water

| Substance | CAC (−log M) |
| --- | --- |
| Ac-GAVILEE | 3.15 −log M |
| Ac-GAVILEE-NH2 | 3.10 −log M |
| AcLIIKNH2 [LI2K] | 2.99 −log M |
